Source: patent US20090018210A1, “A Method for Promoting Fat Degradation” (YAMAHA HATSUDOKI KABUSHIKI KAISHA, priority 2007, published 2009)

System: Human subcutaneous adipocytes
Assay: Promotion of fat degradation (lipolysis) in human adipocytes, free glycerol in culture supernatant
Assay type: cell-based
Settings: 30 μM test substance, 3 hours incubation at 37° C., versus 1% (v/v) DMSO control; Lipolysis Assay Kit; FIG. 1
Procedure: Human subcutaneous adipocytes (Zen-Bio, Inc.) plated onto a 96-well plate was obtained and pre-cultivated under a 5% CO2 atmosphere at 37° C. for 5 days in D-MEM/Ham's F12 Medium (1:1, v/v) containing 3% (v/v) fetal bovine serum, 15 mM HEPES (pH 7.4), 33 μM biotin, 17 μM pantothenate, 100 nM human insulin, 1 μM dexamethasone, 100 U/mL penicillin, 100 μg/mL streptomycin and 0.25 μg/mL amphotericin B. Then, an astaxanthin free form (Wako Pure Chemical Industries, Ltd.: purity 94% or more) and the astaxanthin monoester obtained in Preparation Example 1 were dissolved in dimethyl sulfoxide (DMSO) to prepare stock solutions at a concentration of 3 mM, respectively. The stock solutions were diluted to 30 μM with LIP-2 Assay Buffer (Zen-Bio, Inc.) to prepare test solutions. As a control, 1% (v/v) DMSO solution which was diluted with LIP-2 Assay Buffer was used. Each of the wells was washed with Wash Buffer (Zen-Bio, Inc.) and the test solutions were added to the wells. These wells were incubated under a 5% CO2 atmosphere at 37° C. for 3 hours. After the incubation, the amount of free glycerol in the culture supernatant was measured using a Lipolysis Assay Kit (Zen-Bio, Inc.). […]

Molecule: CC1=C(/C=C/C(C)=C/C=C/C(C)=C/C=C/C=C(C)/C=C/C=C(C)/C=C/C2=C(C)C(=O)[C@@H](O)CC2(C)C)C(C)(C)C[C@H](O)C1=O [astaxanthin]
- percentage of fat degradation promoted, (A/B)×100(%), amount of free glycerol relative to control: significantly increased

Molecule: astaxanthin monoester
- percentage of fat degradation promoted, (A/B)×100(%), amount of free glycerol relative to control: significantly increased
